Results from the supplement of paper PMC10331698.
± gives the standard deviation of the averaged measurements.

How the values were obtained:
Assay in all cases: level (log10 ratio to DMSO vehicle control); higher = higher biomarker level / cell amount than vehicle control
Details in all cases: in DMSO
[1] = compound: O=C(O)C(F)(F)C(F)(F)C(F)(F)C(F)(F)C(F)(F)C(F)(F)C(F)(F)C(F)(F)C(F)(F)F [Perfluorodecanoic acid]
Procedure: (§1)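 BioMAP Diversity Plus panel of 12 human primary cell co-culture systems (3C, 4H, LPS, SAg, BT, BF4T, BE3C, CASM3C, HDF3CGF, KF3CT, MyoF, Mphg). Compounds were added 1 h before stimulation and left for 24 h (MyoF 48 h; BT 72 h for soluble read-outs or 6 d for IgG). Biomarkers were read by ELISA, cytotoxicity by SRB, PBMC viability and proliferation by Alamar Blue. Each well value was divided by the mean of 8 DMSO control wells on the same plate and log10 transformed; duplicate blinded samples were tested at 4 concentrations.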

[2] = compound: FC(F)(F)C(F)(C(F)(F)F)C(F)(F)C(F)(F)CC1CO1 [3-(Perfluoro-3-methylbutyl)-1,2-propenoxide]
Procedure: as §1

[3] = compound: FC(F)(F)C(F)(F)C(F)(F)C(F)(F)C(F)(F)C(F)(F)I [Perfluoro-1-iodohexane]
Procedure: as §1

[4] = compound: FC(F)C(F)(F)COCC1CO1 [((2,2,3,3-Tetrafluoropropoxy)methyl)oxirane]
Procedure: as §1

[5] = compound: COC(=O)CCC(F)(F)C(F)(F)C(F)(F)C(F)(F)F [Methyl 2H,2H,3H,3H-perfluoroheptanoate]
Procedure: as §1

[6] = compound: O=C(O)C(F)(F)C(F)(F)C(F)(F)C(F)(F)C(F)(F)C(F)(F)C(F)(F)C(F)F [9-H-Perfluorononanoic acid]
Procedure: as §1

[7] = compound: C=CC(=O)OCC(F)(F)C(F)(F)C(F)(F)C(F)(F)C(F)(F)C(F)(F)C(F)(F)F [1H,1H-Perfluorooctyl acrylate]
Procedure: as §1

Test System	level (log10) ([1]; 6700 nM)	level (log10) ([1]; 20000 nM)	level (log10) ([2]; 6700 nM)	level (log10) ([2]; 20000 nM)	level (log10) ([3]; 6700 nM)	level (log10) ([3]; 20000 nM)	level (log10) ([3]; 60000 nM)	level (log10) ([4]; 6700 nM)	level (log10) ([4]; 20000 nM)	level (log10) ([4]; 60000 nM)	level (log10) ([5]; 6700 nM)	level (log10) ([5]; 20000 nM)	level (log10) ([5]; 60000 nM)	level (log10) ([6]; 6700 nM)	level (log10) ([6]; 20000 nM)	level (log10) ([6]; 60000 nM)	level (log10) ([7]; 6700 nM)	level (log10) ([7]; 20000 nM)	level (log10) ([7]; 60000 nM)
BE3C:CD54/ICAM-1	0.085	-1.02 ± 0.012	-0.0095 ± 0.019	-0.0065 ± 0.0092	-0.006 ± 0.0014	-0.0125 ± 0.015	-0.005 ± 0.014	0.011 ± 0.011	-0.0035 ± 0.0092	0.011 ± 0.027	-0.0075 ± 0.0092	0.0105 ± 0.018	0.002 ± 0.011	-0.0435 ± 0.012	-0.043 ± 0.0042	-0.071 ± 0.0057	0.0055 ± 0.042	-0.011 ± 0.014	0.003 ± 0.014
BE3C:CD87/uPAR	0.05 ± 0.016	-0.554 ± 0.011	0.01 ± 0.011	-0.008 ± 0.0057	0.0165 ± 0.018	0.0035 ± 0.00071	0.0465 ± 0.026	-0.016 ± 0.018	-0.017 ± 0.028	-0.0135 ± 0.022	-0.003 ± 0.0014	-0.0005 ± 0.00071	-0.0185 ± 0.022	0.0155 ± 0.035	0.0015 ± 0.0092	0.0325 ± 0.0021	-0.0045 ± 0.022	0.0205 ± 0.026	0.0315 ± 0.029
BE3C:CXCL8/IL-8	-0.0545 ± 0.069	-0.577 ± 0.023	0.011	0.0205 ± 0.023	0.011 ± 0.033	0.021 ± 0.028	0.052 ± 0.033	0.0015 ± 0.00071	-0.005 ± 0.025	-0.009 ± 0.021	0.032 ± 0.044	0.002 ± 0.057	0.0295 ± 0.053	0.0255 ± 0.084	0.0435 ± 0.059	0.0385 ± 0.023	0.0375 ± 0.012	0.066	0.071 ± 0.042
BE3C:CXCL9/MIG	-0.003 ± 0.0042	-0.715 ± 0.9	-0.005 ± 0.0042	-0.0035 ± 0.005	0.0085 ± 0.0035	-0.002 ± 0.0071	-0.0035 ± 0.018	0 ± 0.0042	-0.0115 ± 0.0092	0.003 ± 0.02	-0.0025 ± 0.016	-0.007 ± 0.0014	-0.0095 ± 0.00071	-0.0255 ± 0.005	-0.0285 ± 0.005	-0.02 ± 0.0099	-0.002 ± 0.0085	0.0035 ± 0.016	0.0015 ± 0.0078
BE3C:CXCL10/IP-10	-0.188 ± 0.088	-1.16	-0.0115 ± 0.023	-0.0065 ± 0.011	0.013 ± 0.018	0.0135 ± 0.0078	0.0355 ± 0.022	-0.007 ± 0.011	-0.0125 ± 0.016	0.002 ± 0.0099	-0.001 ± 0.013	-0.004 ± 0.0057	-0.006 ± 0.0099	-0.021 ± 0.0057	-0.04 ± 0.0042	-0.149 ± 0.04	0.0315 ± 0.015	0.0195 ± 0.005	0.0235 ± 0.023
BE3C:CXCL11/I-TAC	-0.0405 ± 0.021	-0.849 ± 0.028	0 ± 0.0057	-0.0075 ± 0.0035	-0.0005 ± 0.0021	0.002 ± 0.0057	0.0175 ± 0.0092	0.0005 ± 0.054	-0.008 ± 0.033	0.0225 ± 0.037	-0.0175 ± 0.012	-0.011 ± 0.018	-0.0095 ± 0.00071	-0.01 ± 0.0085	-0.009 ± 0.0085	-0.036 ± 0.021	0.0115 ± 0.00071	0.016 ± 0.0099	0.009 ± 0.0014
BE3C:EGFR	-0.0135 ± 0.05	-0.149 ± 0.073	-0.01 ± 0.013	-0.023 ± 0.013	0.0095 ± 0.00071	-0.0055 ± 0.0021	0.0285 ± 0.013	0.002 ± 0.0071	-0.021 ± 0.021	-0.0145 ± 0.012	-0.029 ± 0.021	0.008 ± 0.0042	-0.022 ± 0.0071	-0.028 ± 0.0099	-0.022 ± 0.021	-0.0425 ± 0.023	0.016 ± 0.0071	0.01 ± 0.025	0.02 ± 0.011
BE3C:HLA-DR	-0.0525 ± 0.022	-0.842 ± 0.04	-0.0075 ± 0.005	-0.003 ± 0.0085	-0.003 ± 0.0028	0.003 ± 0.0057	-0.009 ± 0.0028	0.001 ± 0.0099	-0.0055 ± 0.0035	-0.07 ± 0.14	-0.016	0.004 ± 0.0028	-0.0235 ± 0.03	-0.102 ± 0.042	-0.14 ± 0.052	-0.15 ± 0.0014	-0.0055 ± 0.005	-0.0025 ± 0.005	0.0055 ± 0.012
BE3C:IL-1alpha	-0.0245 ± 0.00071	-0.811 ± 0.055	0.002 ± 0.025	0.023 ± 0.057	-0.0155 ± 0.013	-0.009 ± 0.0014	-0.0195 ± 0.013	0.0015 ± 0.029	-0.0015 ± 0.0078	-0.008 ± 0.014	0.014 ± 0.023	-0.002 ± 0.013	0.025 ± 0.047	0.032 ± 0.0028	0.014 ± 0.028	0.026 ± 0.0028	-0.006 ± 0.018	-0.0095 ± 0.0035	-0.0105 ± 0.019
BF4T:CCL2/MCP-1	-0.043 ± 0.03	-0.484 ± 0.11	-0.011 ± 0.011	-0.0035 ± 0.0092	-0.002 ± 0.025	-0.024 ± 0.025	-0.0315 ± 0.028	-0.0155 ± 0.019	-0.0095 ± 0.013	0.011 ± 0.044	-0.0105 ± 0.019	-0.0245 ± 0.039	-0.002 ± 0.0085	-0.164 ± 0.011	-0.19 ± 0.0057	-0.122 ± 0.036	-0.0145 ± 0.0021	-0.0405 ± 0.0078	-0.027 ± 0.0014
BF4T:CCL26/Eotaxin-3	-0.083 ± 0.038	-0.509 ± 0.029	0.012 ± 0.028	-0.0095 ± 0.016	0.0255 ± 0.0035	0.0135 ± 0.015	-0.0145 ± 0.059	0.005 ± 0.033	0.0055 ± 0.052	0.031 ± 0.05	-0.0095 ± 0.005	-0.0175 ± 0.0092	-0.016 ± 0.0042	-0.174 ± 0.028	-0.198 ± 0.049	-0.147 ± 0.0071	-0.008 ± 0.016	-0.019 ± 0.03	-0.036 ± 0.031
BF4T:CD54/ICAM-1	-0.0305 ± 0.0064	-0.181 ± 0.011	0.0005 ± 0.018	-0.011 ± 0.021	-0.004 ± 0.0057	0.0045 ± 0.013	0 ± 0.0057	-0.005 ± 0.0099	-0.0065 ± 0.0064	-0.002 ± 0.0057	-0.025 ± 0.034	-0.0195 ± 0.019	-0.026 ± 0.027	-0.0775 ± 0.0092	-0.088 ± 0.0028	-0.0795 ± 0.00071	-0.0105 ± 0.005	-0.0165 ± 0.0035	-0.0295 ± 0.0092
BF4T:CD90	0.003 ± 0.0042	-0.0955 ± 0.0064	-0.0175 ± 0.00071	-0.0165 ± 0.03	-0.0085 ± 0.0035	-0.002 ± 0.018	-0.002 ± 0.011	-0.006 ± 0.03	0.004 ± 0.0057	0.014 ± 0.016	-0.009 ± 0.011	-0.0045 ± 0.0064	-0.032 ± 0.013	-0.0705 ± 0.021	-0.0605 ± 0.013	-0.0685 ± 0.015	-0.013 ± 0.014	-0.003 ± 0.0028	-0.004 ± 0.031
BF4T:CD106/VCAM-1	-0.026 ± 0.0085	-0.311 ± 0.0042	0.0025 ± 0.03	0.0425 ± 0.032	-0.0055 ± 0.0035	-0.0215 ± 0.0035	-0.0745 ± 0.019	0.003 ± 0.0028	-0.003 ± 0.0057	0.0185 ± 0.043	-0.001 ± 0.02	0.002 ± 0.0028	0.0015 ± 0.0064	-0.0885 ± 0.049	-0.103 ± 0.058	-0.0625 ± 0.021	-0.0105 ± 0.0021	-0.04 ± 0.0014	-0.049 ± 0.011
